B1: Thymidine kinase (Vaccinia virus (strain Western Reserve) (VACV) (Vaccinia virus (strainWR))), P68563 (protein)
chain: MNGGHIQLIIGPMFSGKSTELIRRVRRYQIAQYKCVTIKYSNDNRYGTGLWTHDKNNFEALEATKLCDVLESITDFSVIGIDEGQFFPDIVEFCERMANEGKIVIVAALDGTFQRKPFNNILNLIPLSEMVVKLTAVCMKCFKEASFSKRLGEETEIEIIGGNDMYQSVCRKCYIDS

Key:
[1] = species: Homo sapiens
[2] = test system: Vaccinia virus; assay: microbe, parasite or virus in culture; assay type: functional, organism-based; conditions: Orthopoxvirus vaccinia, HFF, 1 h
[3] = test system: Cowpox virus; assay: microbe, parasite or virus in culture; assay type: functional, organism-based; conditions: Brighton, HFF, 1 h
[4] = test system: Cowpox virus; assay: microbe, parasite or virus in culture; assay type: functional, organism-based; conditions: HFF, 48 h
[5] = test system: Cowpox virus; assay: microbe, parasite or virus in culture; assay type: functional, organism-based; conditions: HFF, 48 h; remark: listed apart in the source
[6] = test system: Human alphaherpesvirus 1; assay: microbe, parasite or virus in culture; assay type: functional, organism-based; conditions: Human alphaherpesvirus 1, E377, HFF, 72 h
[7] = test system: Human alphaherpesvirus 1; assay: microbe, parasite or virus in culture; assay type: functional, organism-based; conditions: Human alphaherpesvirus 1, DM2.1, HFF, 72 h
[8] = test system: Human alphaherpesvirus 2; assay: microbe, parasite or virus in culture; assay type: functional, organism-based; conditions: Human alphaherpesvirus 2, MS, HFF, 72 h
[9] = test system: Human alphaherpesvirus 2; assay: microbe, parasite or virus in culture; assay type: functional, organism-based; conditions: Human alphaherpesvirus 2, AG3, HFF, 72 h
[10] = test system: Human alphaherpesvirus 3; assay: microbe, parasite or virus in culture; assay type: functional, organism-based; conditions: Human alphaherpesvirus 3, Ellen, HFF, 240 h
[11] = substrate: CC1(C)CC(=O)C2=C(C1)OC(N)=C(C#N)C2c1cn([C@H]2C[C@H](O)[C@@H](CO)O2)c(=O)[nH]c1=O; conditions: Orthopoxvirus vaccinia; WR
[12] = substrate: CCOC(=O)/C(C#N)=C/c1cn([C@H]2C[C@H](O)[C@@H](CO)O2)c(=O)[nH]c1=O; conditions: Orthopoxvirus vaccinia; WR
[13] = substrate: N#CC(C#N)=Cc1cn([C@H]2C[C@H](O)[C@@H](CO)O2)c(=O)[nH]c1=O; conditions: Orthopoxvirus vaccinia; WR
[14] = substrate: Nc1nc(=O)n([C@@H]2O[C@H](CO)[C@@H](O)[C@@H]2F)cc1I; conditions: Orthopoxvirus vaccinia; WR
[15] = substrate: O=c1[nH]c(=O)n([C@H]2C[C@H](O)[C@@H](CO)O2)cc1Br; conditions: Orthopoxvirus vaccinia; WR
[16] = substrate: O=c1[nH]c(=O)n([C@H]2C[C@H](O)[C@@H](CO)O2)cc1F; conditions: Orthopoxvirus vaccinia; WR
[17] = substrate: O=c1[nH]cc(C(F)(F)F)c(=O)[nH]1; conditions: Orthopoxvirus vaccinia; WR

Row | Molecule | Km [1] [µM] | EC50 [2] [µM] | EC50 [3] [µM] | EC50 [4] [µM] | EC50 [5] [nM] | EC50 [6] [µM] | EC50 [7] [µM] | EC50 [8] [µM] | EC50 [9] [µM] | EC50 [10] [µM] | also measured
1 | Cc1cn([C@H]2C[C@H](O)[C@@H](CO)O2)c(=O)[nH]c1=O | 23 |  |  |  |  |  |  |  |  |  | 
2 | Nc1ccn(C[C@@H](CO)OCP(=O)(O)O)c(=O)n1 [CIDOFOVIR] |  | 11 | 32 | 16 | 10000 |  |  |  |  |  | 
3 | N#CC(C#N)=Cc1cn([C@H]2C[C@H](O)[C@@H](CO)O2)c(=O)[nH]c1=O | 113 | 17 | 21 | 46 | 1900 | 11 | 14 | 11 | 12 | 15 | 
4 | N#CC1=C(N)OC2=C(C(=O)CCC2)C1c1cn([C@H]2C[C@H](O)[C@@H](CO)O2)c(=O)[nH]c1=O (stereo partly specified) |  | 4.6 | 2 | 67 | 1900 | 8.6 | 13 | 12 | 12 | 16 | 
5 | O=c1[nH]cc(C(F)(F)F)c(=O)[nH]1 | 47 |  |  |  |  |  |  |  |  |  | 
6 | CC1(C)CC(=O)C2=C(C1)OC(N)=C(C#N)C2c1cn([C@H]2C[C@H](O)[C@@H](CO)O2)c(=O)[nH]c1=O (stereo partly specified) | > 200 | 7.9 | 8.4 | 67 | 3100 | 7.3 | 17 | 13 | 14 | 9.2 | 
7 | O=c1[nH]c(=O)n([C@H]2C[C@H](O)[C@@H](CO)O2)cc1Br | 46 |  |  |  |  |  |  |  |  |  | 
8 | O=c1[nH]c(=O)n([C@H]2C[C@H](O)[C@@H](CO)O2)cc1F | 96 |  |  |  |  |  |  |  |  |  | 
9 | O=c1[nH]c(=O)n([C@@H]2O[C@H](CO)[C@@H](O)[C@@H]2F)cc1I | 66 |  |  |  |  |  |  |  |  |  | 
10 | CCOC(=O)/C(C#N)=C/c1cn([C@H]2C[C@H](O)[C@@H](CO)O2)c(=O)[nH]c1=O | 118 | 18 | 11 | 71 | 1900 | 7.6 | 16 | 8.3 | 11 | 48 | 
11 | O=c1[nH]c(=O)n([C@H]2C[C@H](O)[C@@H](CO)O2)cc1I [IDOXURIDINE] | 38 | 5.6 | 1.8 | 76 | 1100 |  |  |  |  |  | 
12 | Nc1nc(=O)n([C@@H]2O[C@H](CO)[C@@H](O)[C@@H]2F)cc1I | > 135 |  |  |  |  |  |  |  |  |  | 
13 | Nc1nc2c(ncn2COCCO)c(=O)[nH]1 [ACYCLOVIR] |  |  |  |  |  | 1.3 | > 444 | 3.1 | > 444 | 8.5 | 
14 | B1 |  |  |  |  |  |  |  |  |  |  | Km [11]: 97 µM; Km [12]: 13 µM; Km [13]: 9.6 µM; Km [14]: > 135 µM; Km [15]: 30 µM; Km [16]: 113 µM; Km [17]: 14 µM

Source: ChEMBL document CHEMBL1145474, “Selective phosphorylation of antiviral drugs by vaccinia virus thymidine kinase” (Antimicrob Agents Chemother, 2007)
